In patent publication US20240374610A1, “METHOD AND PHARMACEUTICAL COMPOSITION FOR TREATING OR ALLEVIATING GLIOMAS IN A SUBJECT” (Zhejiang University, priority 2023, published 2024):
Each block holds one compound with its values, some of them ahead of it.

Tests used:
[1] = tested on: CKO model-derived glioma cell lines 1483 and 1877; experiment: Proliferation rate of CKO model-derived glioma cell lines (EdU incorporation assay); type: cell-based, mouse; conditions: for proliferation of tumor OPCs: 200 μM glutamate, 200 μM GABA or 15 mM KCl vs control, cell lines 1483 and 1877
Excerpt: Cell lines were authenticated by tdTomato marker when histology analyzing. All cell lines tested negative for mycoplasma contamination.

[2] = tested on: peripheral immune cells; experiment: Immune cells in peripheral blood under clozapine (FACS); type: in vivo, mouse; conditions: clozapine by oral or i.p. administration, three weeks
Method: Blood was collected by intracardial puncture from anaesthetized mice into heparinized 1 ml syringes. Heparin was used in a range of 30 units/ml. Red blood cells were lysed in ACK lysing buffer (Gibco, A10492) at room temperature for 5 min. Cell suspensions were spun down at 300 g for 5 min. The cell pellet was then washed with Hank's balanced salt solution (HBSS) and spun for 5 min at 300 g. The cells in the pellet (1-2×10^5 cells) were used in fluorescence assays. Antibodies used for flow cytometry were directed against the following mouse antigens: Pacific Blue anti-mouse CD45(30-F11), PE anti-mouse Ly-6G(1A8), PerCP/Cyanine5.5 anti-mouse CD11c, FITC anti-mouse CD19(1D3), APC anti-mouse CD3(17A2), APC/Cyanine7 anti-mouse/human CD11b(M1/70) from Biolegend. Dilution: 1: 200.

[3] = tested on: blood-brain-barrier; experiment: Evans Blue dye assay of blood-brain barrier integrity; type: in vivo, mouse; conditions: WT mice, clozapine by drinking water or i.p.
Method: The protocol was adapted from Ludewig et al.^42 with some modifications. Mice were administrated with 200 μL Evans Blue (2%) by i.p injection. After six hours of EB injection, the mice were anaesthetized and then perfused with cold PBS. 100 mg tissue for each sample from multiple organs (as indicated in the FIG. 9g) was collected in 500 μL PBS and ground into tissue homogenate. 500 μL formamide was then add to the homogenate before being incubated in the 55° C. for 24 hours. After centrifugation, supernatants were collected for optical density detecting at 620 nm.

[4] = tested on: local resident microglia; experiment: Granulocytes and macrophage/microglia in the brain under clozapine (CD15, Iba1, CD68 staining); type: in vivo, mouse
Method: All mouse frozen tissues were cryo-sectioned into 20 μm thickness. For routine staining, the slides were fixed in ice-cold 2% PFA for 15 minutes. After washed in 1×PBS (3 times, 10 minutes each), the slides were briefly rinsed with 1×PBT (0.3% Triton X-100 in 1×PBS) and then incubated with the blocking solution (5% normal donkey serum, 0.3% Triton X-100, 0.1% NaN3 in 1×PBS) for 20 minutes. The slides mounted with primary antibodies were then incubated in the wet box at 4° C. overnight. Next day, the slides were washed in 1×PBT (4 times, 10 minutes each) before incubated with secondary antibodies (diluted in 1×PBT) in foil-wrapped wet box at 4° C. overnight. The third day, the slides were washed in 1×PBT (4 times, 10 minutes each) and DAPI solution (25 ng/ml in 1×PBS, 20 minutes). After washing with 1×PBS for 5 minutes, the slides were mounted with the mounting solution (65% glycerol in 1×PBS) and covered with coverslips.

[5] = tested on: glioma cells from the CKO model; experiment: RNA-Seq of glioma cells co-cultured with primary OB neurons and stimulated by IGF-1; type: cell-based, mouse; conditions: co-cultures stimulated by 20 ng/mL IGF-1
Method: OBs were dissected from P2-3 mouse pups and digested in 10 mL papain solution (1×EBSS (Sigma, E7510), 0.5 mM EDTA, 10 mM HEPES, 26 mM NaHCO3, 22.5 mM D(+)-glucose, 0.16 mg/mL L-cycteine, 20 units/mL papain (Worthington Biochem, LS003126), 250 μg/mL DNase I (Sigma, DN-25) in dd-water) for 30 min at 37° C. Papain solution was discarded and the tissue was triturated with 2 mL Diluted Trypsin Inhibitor Buffer (1×EBSS (Sigma, E7510), 10 mM HEPES, 26 mM NaHCO3, 1× ovomucoid (Worthington Biochem, LS003086), 250 μg/mL DNase I (Sigma, DN-25), 1 mg/mL BSA (equitech-bio, BAH62) in dd-water) by 1 mL pipette and was allowed to settle for 2 min. 1 mL upper cell suspension was carefully collected and additional 1 mL Diluted Trypsin Inhibitor Buffer was add to the tissue. The process was repeated until all Diluted Trypsin Inhibitor Buffer was consumed. […]
For sequencing of tumor cells from co-cultures, raw data was filtered by removing adapter with Cutadapt (Version 3.4) and quality control (not lower than 25). Clean reads were aligned to the reference genome Mus_musculus.GRCm39.dna.primary_assembly.fa (39.103) from Ensembl by STAR (Version 2.7.9a). Read counts were calculated by featureCounts (Version 2.0.1). The feature was selected as Exon, and only reads with mapping quality score greater than 25 were retained. […]

Compound: O=[N+]([O-])c1cc2nc(O)c(O)nc2cc1[N+](=O)[O-] [DQNX]
- IGF1-promoted proliferation of tumor OPCs ([1]; 20 ng/mL IGF-1 plus 10 μM AMPA-receptor antagonist vs IGF-1 alone): did not affect

Compound: NCCCC(=O)O [GABA]
- proliferation of tumor OPCs [1]: did not affect

Compound: N[C@@H](CCC(=O)O)C(=O)O [Glutamate]
- proliferation of tumor OPCs [1]: did not affect

- number of granulocytes in peripheral blood [2]: slightly but significantly reduced
- number of macrophages in peripheral blood [2]: increased
- integrity of the blood-brain-barrier [3]: did not affect the integrity
- number or activation of local resident microglia ([4]; CKO model regardless of tumor stage, Iba1+ and CD68+ Iba1+): not affected
- granulocytes (CD15) in the brain parenchyma ([4]; WT, Omp-hM3Dq, Omp-hM4Di and CKO tumor mice with clozapine treatment): barely any granulocytes could be found
Compound: CN1CCN(C2=Nc3cc(Cl)ccc3Nc3ccccc32)CC1 [clozapine]

Compound: [Cl-].[K+] [potassium chloride]
- proliferation of tumor OPCs [1]: did not affect

Compound: insulin-like growth factor-1 [IGF-1]
- proliferation of tumor OPCs in vitro ([1]; 20 ng/mL IGF-1, glioma cell lines 1483 and 1877): significantly stimulated the proliferation
- expression of RTK downstream genes such as Egr3/4 and Fosl2 [5]: significant upregulation
- expression of neurotransmitter receptor genes including AMPARs in tumor OPCs [5]: did not affect the expression
